Source: patent US6403084B1, “Mixed cultures for improved fermentation and aerobic stability of silage” (Pioneer Hi-Bred International, Inc., priority 2000, dated 2002)

What was measured:
[1] = Aerobic stability of inoculated whole plant corn silage (WPCS fall field trials, PVC silos)
Description: Whole plant corn forage was harvested at approximately 2/3 milk line with a 2-row pull type forage chopper. Theoretical chop length was […].
A 30 cc syringe fitted with a 16-gauge needle was used to apply the inoculants to the forage at a rate of 1 ml/lb. The inoculants were mixed with the forage by rolling on clean plastic.
For each treatment two 4″×14″ PVC silos with air infusion holes near the top and bottom of the silo were filed with 1123 g, 1173 g, 1271 g, 1144 g, 1459 g, 1278 g, 1207 g and 1097 g of forage. Experimental silos were fitted with rubber quick caps at each end, the top having a bunsen valve to allow gas to escape. The silos were then weighed for dry matter recovery. After filing, the silos were kept in an environmentally controlled room until opening and air infused for 24 hours on day 28.
Three pre-ensiled forage samples were taken while filling during each trial for pH and microbial analysis. Lactic acid bacteria (LAB) were enumerated on modified MRS agar and yeasts and molds on Sabouraud Dextrose agar. Dry matter was determined by drying to a constant weight for 72 hours at 55° C. in a forced air oven. Inoculum was plated on modified MRS agar. Silos were opened after 50 days emptied and mixed. Samples were taken for pH, DM and aerobic stability analyses.
(§1) Aerobic stability was determined by placing 100 g of dry matter of silage into a plastic tub with holes in the lid and bottom, placing a temperature probe in the center of the silage mass and placing the tub into a styrofoam cooler (Honig, Das Wirtschaftseigene Futter (1975) 21:25-32). The coolers were then kept in a temperature-controlled room where the ambient temperature and silage temperature were recorded by a datalogger every three hours for one week. DM was determined as per the pre-ensiled samples. Frozen samples of selected samples were submitted for VFA analysis according to standard protocols.

[2] = Aerobic stability of inoculated high moisture corn silage (1999 HMC field trials, PVC silos)
Description: High moisture corn was harvested by combine at 22 to 28% moisture. Harvested grain was processed with a roller mill with rollers set at a gap width of approximately 3 mm.
Inoculants were formulated to deliver the appropriate rate as give in Table 2. A 30 cc syringe fitted with a 16-gauge needle was used to apply the inoculants to the forage at a rate of 1 ml/lb. The inoculants were mixed with the forage by rolling on clean plastic.
For each treatment two 4″×14″ PVC silos with air infusion holes near the top and bottom of the silo were filled with 2.5 kg of forage. Experimental silos were fitted with rubber quick caps at each end, the top having a bunsen valve to allow gas to escape. The silos were then kept in an environmentally controlled room until opening.
Two pre-ensiled forage samples were taken while filling during each trial for pH and microbial analysis. Lactic acid bacteria (LAB) were enumerated on modified DeMann-Rogosa-Sharpe (MRS) agar and yeasts and molds on Sabouraud Dextrose agar. Dry matter (DM) was determined by drying to a constant weight for 72 hours at 55° C. in a forced air oven. Inoculum was plated on modified MRS agar. Silos were opened after approximately 60 days, emptied and mixed. Samples were taken for pH, DM, digestibility, and aerobic stability analyses.
as §1, with “stabilty” for “stability”, “500” for “100”, “g” for “g of dry matter”, “Dried” for “Frozen”, “from the DM determination” for “of selected samples”, “ground through a 4 mm Wiley Mill screen and scanned by near infrared spectroscopy (NIRS).” for “submitted for VFA analysis according to standard protocols.”

improvement of aerobic stability [2]: 94 h
improvement of aerobic stability (in words) [2]: effective in all trials
Compound: CCC(=O)O [PROP, Propionic acid]
Loss ([1]; number of WPCS trials (of 8) with 24 hour decrease in stability compared to control): 2
Win ([1]; number of WPCS trials (of 8) with 24 hour increase in stability compared to control): 3
No Effect ([1]; number of WPCS trials (of 8) with no effect): 3
Loss ([2]; number of HMC field trials with 24 hour decrease in stability compared to control): 0
Win ([2]; number of HMC field trials with 24 hour increase in stability compared to control): 8
No Difference ([2]; number of HMC field trials with no difference from control): 0
